# Experimental data taken from US8835462B2, “Macrocyclic picolinamides as fungicides” (Dow AgroSciences LLC, priority 2012, dated 2014).
# Legend:
# Phakopsora pachyrhizi = experiment: Asian soybean rust (PHAKPA) fungicidal activity; format: in vivo; conditions: 25 ppm; for Disease Control PHAKPA 1 DP: 1 Day Protectant; for Disease Control PHAKPA 2 DC: 2 Day Curative
# Method: Evaluation of Fungicidal Activity: Asian Soybean Rust (Phakopsora Pachyrhizi; Bayer Code […]) Technical grades of materials were dissolved in acetone, which were then mixed with nine volumes of water containing 0.011% Tween 20. The fungicide solutions were applied onto soybean seedlings using an automated booth sprayer to run-off. All sprayed plants were allowed to air dry prior to further handling. Soybean plants (variety Williams 82) were grown in soil-less Metro mix, with one plant per pot. Two weeks old seedlings were used for testing. Plants were inoculated either 2 days prior to or 1 day after fungicide treatments. Plants were incubated for 24 h in a dark dew room at 22° C. and 100% RH then transferred to a growth room at 23° C. for disease to develop. Disease severity was assessed on the sprayed leaves.
# Cochliobolus sativus = experiment: Spot blotch of barley (COCHSA) fungicidal activity; format: in vivo; conditions: 100 ppm, 1 Day Protectant
# Method: Technical grades of materials were dissolved in acetone, which were then mixed with nine volumes of water containing 110 ppm Triton X-100. The fungicide solutions were applied onto wheat seedlings using an automated booth sprayer to run-off. All sprayed plants were allowed to air dry prior to further handling. Wheat plants (variety Yuma) were grown from seed in a greenhouse in 50% mineral soil/50% soil-less Metro mix until the first leaf was fully emerged, with 7-10 seedlings per pot. These plants were inoculated with an aqueous spore suspension of Septoria tritici either prior to or after fungicide treatments. After inoculation the plants were kept in 100% relative humidity (one day in a dark dew chamber followed by two to three days in a lighted dew chamber at 20° C.) to permit spores to germinate and infect the leaf. The plants were then transferred to a greenhouse set at 20° C. for disease to develop. When disease symptoms were fully expressed on the 1st leaves of untreated plants, infection levels were assessed on a scale of 0 to 100 percent disease severity. Percent disease control was calculated using the ratio of disease severity on treated plants relative to untreated plants. Evaluation of Fungicidal Activity: Spot Blotch of Barley (Cochliobolus Sativus; Bayer Code COCHSA) Barley seedlings (variety Harrington) were propagated in soil-less Metro mix, with each pot having 8 to 12 plants, and used for testing when first leaf was fully emerged. Test plants were inoculated with a spore suspension of Cochliobolus sativus 24 hr after fungicide treatments. After inoculation the plants were placed in a dark dew room with 100% RH and temperature of 22° C. for 48 hr. The plants were then kept in a greenhouse set at 24° C. until disease fully developed. Fungicide formulation, application and disease assessment followed the procedures as described in the Example A.
# Rhyncosporium secalis = experiment: Barley scald (RHYNSE) fungicidal activity; format: in vivo; conditions: 100 ppm, 1 Day Protectant
# Method: Technical grades of materials were dissolved in acetone, which were then mixed with nine volumes of water containing 110 ppm Triton X-100. The fungicide solutions were applied onto wheat seedlings using an automated booth sprayer to run-off. All sprayed plants were allowed to air dry prior to further handling. Wheat plants (variety Yuma) were grown from seed in a greenhouse in 50% mineral soil/50% soil-less Metro mix until the first leaf was fully emerged, with 7-10 seedlings per pot. These plants were inoculated with an aqueous spore suspension of Septoria tritici either prior to or after fungicide treatments. After inoculation the plants were kept in 100% relative humidity (one day in a dark dew chamber followed by two to three days in a lighted dew chamber at 20° C.) to permit spores to germinate and infect the leaf. The plants were then transferred to a greenhouse set at 20° C. for disease to develop. When disease symptoms were fully expressed on the 1st leaves of untreated plants, infection levels were assessed on a scale of 0 to 100 percent disease severity. Percent disease control was calculated using the ratio of disease severity on treated plants relative to untreated plants. Evaluation of Fungicidal Activity: Barley Scald (Rhyncosporium Secalis; Bayer Code […]) Barley seedlings (variety Harrington) were propagated in soil-less Metro mix, with each pot having 8 to 12 plants, and used in the test when first leaf was fully emerged. Test plants were inoculated by an aqueous spore suspension of Rhyncosporium secalis 24 hr after fungicide treatments. After inoculation the plants were kept in dew room at 20° C. with 100% relative humidity for 48 hr. The plants were then transferred to a greenhouse set at 20° C. for disease to develop. Fungicide formulation, application and disease assessment on the sprayed leaves followed the procedures as described in the Example A.
SMILES,Disease Control PHAKPA 1 DP (Phakopsora pachyrhizi),Disease Control PHAKPA 2 DC (Phakopsora pachyrhizi),Disease Control COCHSA 1DP (Cochliobolus sativus),melting point [°C],Disease Control RHYNSE 1DP (Rhyncosporium secalis)
"COc1ccnc(C(=O)N[C@H]2COC[C@H](Cc3ccccc3)[C@@H](OCC(C)C)[C@H](C)OC2=O)c1OC(C)=O [Compound 9, 2-(((3S,7S,8R,9S)-7-benzyl-8-isobutoxy-9-methyl-2-oxo-1,5-dioxonan-3-yl)carbamoyl)-4-methoxypyridin-3-yl acetate]",A (80-100),A (80-100),B (More than 0-Less than 80),,
"COc1ccnc(C(=O)N[C@H]2COC[C@H](Cc3ccccc3)[C@@H](OCC(C)C)[C@H](C)OC2=O)c1O [Compound 2, N-((3S,7S,8R,9S)-7-benzyl-8-isobutoxy-9-methyl-2-oxo-1,5-dioxonan-3-yl)-3-hydroxy-4-methoxypicolinamide]",A (80-100),A (80-100),,126 to 128,
COc1ccnc(C(=O)N[C@H]2COC[C@H](Cc3ccccc3)[C@@H](OC3CCCC3)[C@H](C)OC2=O)c1OC(C)=O [Compound 107],,,,,A (80-100)
COc1ccnc(C(=O)N[C@H]2COC[C@H](Cc3ccccc3)[C@@H](OC3CCCC3)[C@H](C)OC2=O)c1OCOC(=O)C(C)C [Compound 108],A (80-100),A (80-100),,,A (80-100)
COc1ccnc(C(=O)N[C@H]2COC[C@H](Cc3ccccc3)[C@@H](OCC(C)C)[C@H](C)OC2=O)c1OCOC(=O)C(C)(C)C [Compound 7],A (80-100),A (80-100),B (More than 0-Less than 80),,
COc1ccnc(C(=O)N[C@H]2COC[C@H](Cc3ccccc3)[C@@H](OCC(C)C)[C@H](C)OC2=O)c1OCOC(=O)C(C)C [Compound 3],A (80-100),A (80-100),A (80-100),54 to 58,
"COc1ccnc(C(=O)N[C@H]2COC[C@H](Cc3ccccc3)[C@@H](OCC(C)C)[C@H](C)OC2=O)c1OC(=O)OC(C)C [Compound 10, 2-(((3S,7S,8R,9S)-7-benzyl-8-isobutoxy-9-methyl-2-oxo-1,5-dioxonan-3-yl)carbamoyl)-4-methoxypyridin-3-yl isopropyl carbonate]",A (80-100),A (80-100),B (More than 0-Less than 80),,
"COc1ccnc(C(=O)N[C@H]2COC[C@H](Cc3ccccc3)[C@@H](OCC(C)C)[C@H](C)OC2=O)c1OCOC(C)=O [Compound 8, (2-((3S,7S,8R,9S)-7-benzyl-8-isobutoxy-9-methyl-2-oxo-1,5-dioxonan-3-ylcarbamoyl)-4-methoxypyridin-3-yloxy)methyl acetate]",A (80-100),A (80-100),B (More than 0-Less than 80),,A (80-100)
